{"source": "paper PMC5248581", "about": "(PeerJ, 2017)", "key": {"[1]": {"target": "T1, human isolated umbilical vein (BK B2R; histamine H1R) (Homo sapiens, UniProt P30411)", "T1 sequence (P30411 1-391)": "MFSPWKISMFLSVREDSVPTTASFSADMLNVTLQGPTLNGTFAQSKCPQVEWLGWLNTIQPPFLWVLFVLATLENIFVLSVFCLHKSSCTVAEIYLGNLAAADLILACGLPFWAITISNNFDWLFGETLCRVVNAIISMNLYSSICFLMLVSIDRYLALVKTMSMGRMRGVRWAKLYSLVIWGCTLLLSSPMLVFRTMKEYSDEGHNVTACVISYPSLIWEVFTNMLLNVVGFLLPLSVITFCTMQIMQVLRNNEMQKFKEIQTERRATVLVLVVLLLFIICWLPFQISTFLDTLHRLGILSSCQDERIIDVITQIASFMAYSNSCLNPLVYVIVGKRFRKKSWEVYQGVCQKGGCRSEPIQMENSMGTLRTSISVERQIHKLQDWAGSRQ", "source_text": "The institutional research ethics board (CHU de Québec) approved the anonymous use of human umbilical cord segments obtained after elective cesarean section deliveries (file number: 2012-323). Informed written consent was obtained from mothers.\n(§1) Results are presented as means ± s.e.m. Radioligand binding data were fitted by nonlinear regression to a one-site competition equation using a least-square method (Prism 5.0; GraphPad Software Inc., San Diego, CA, USA) and IC50 values calculated from this procedure. The same computer program was used to draw concentration-effect curves (least square fitting of sigmoidal dose–response equation with variable slope) and to derive contractile EC50 values. Data describing baseline values of heart rate and mean arterial blood pressure and hypotensive responses to peptides in anesthetized rats were assessed by using one-way analysis of variance (ANOVA) followed by the Dunnett’s test (repeated comparison with a common control). The effects of drugs on the hypotensive responses to each dose of MK were assessed by using ANOVA followed by the Dunnett’s test."}, "male Sprague-Dawley rats": {"system": "male Sprague-Dawley rats", "conditions": "for Basal mean arterial blood pressure after pre-treatment / Basal heart rate after pre-treatment: 15 min after i.v., enalaprilat 0.1 mg/kg n=6, icatibant 25 µg/kg n=6, pyrilamine 5 mg/kg n=16, means ± s.e.m.; for Basal mean arterial blood pressure after pre-treatment: control 96.5 ± 2.5; for Basal heart rate after pre-treatment: control 351 ± 10, * P < 0.01 vs control; for effect of pretreatment on hypotensive effect of MK: enalaprilat 0.1 mg/kg, icatibant 25 µg/kg, 15 min before MK", "description": "All surgical and experimental procedures were reviewed and approved by the Animal Care and Handling Committee of Laval University, in accordance with the Canadian Council on Animal Care (file no. 2012-223). Experiments were performed on male Sprague-Dawley rats (300–375 g) purchased from Charles River Laboratories (St-Constant, Qc, Canada). Only animals of the male gender have been studied to be consistent with related and recently published data ([Jean et al., 2016a]). The rats were housed in a temperature-controlled room (22 ± 1 °C) on a 12 h/12 h light-dark cycle (lights on at 0600) and had free access to normal chow diet and tap water. They were allowed to acclimate to their environmental conditions for one week prior to being studied. At the end of the acclimation period, the rats were anesthetised with sodium pentobarbital (50 mg kg^−1, i.p., supplemented as required) and had one catheter implanted into the right jugular vein (for intravenous ( i.v.) injection) and one into the left femoral artery (for direct and continuous measurement of blood pressure and heart rate as previously described, [Jean et al., 2016a]). In some experiments, a miniaturized pulsed Doppler flow probe ([Haywood et al., 1981]) was implanted around the distal abdominal aorta (below the level of the ileocaecal artery) through a midline abdominal incision to monitor changes in hindquarter hemodynamic, according to the method previously developed by [Gardiner & Bennett (1988)] and as previously described ([Bachelard et al., 1992]; [Jean et al., 2016a]). Experiments started at least 30 min following the end of surgery in anesthetised rats.\nBaseline heart rate and phasic and mean arterial blood pressure were recorded over a period of 15 min in anesthetized rats. […] Peptides were dissolved in isotonic saline (0.9% NaCl) containing 0.1% BSA to prevent the adsorption of peptide to the glassware and plastic surfaces. All i.v. injections were given as 100 µl boluses which were washed in with a further 100 µl of saline (the dead space of the catheter). Only one peptide was tested per group of rats and each injection started with saline-BSA 0.1% followed by the lowest dose of peptide. The next dose was administered once all recorded cardiovascular parameters had returned to baseline after the previous injection (usually 2–10 min). At the end of the experiments each animal was euthanized with an overdose of sodium pentobarbital (240 mg/kg, i.v.).\nIn these experiments, enalaprilat was intravenously administered as bolus (0.1 mg/kg, 0.1 ml) following a 10 min period of baseline measurements of heart rate and blood pressure. Fifteen minutes later, a dose–response curve to MK was obtained, as described above. […] In these experiments, icatibant was intravenously administered as bolus (25 µg/kg, 0.1 ml) 15 min before the i.v. injection of increasing doses of MK, as above. […] In these experiments, pyrilamine was intravenously administered as bolus (5 mg/kg, 0.1 ml) 15 min before the i.v. injection of increasing doses of MK, as above.\nas §1, with “control).” for “control). The effects of drugs on the hypotensive responses to each dose of MK were assessed by using ANOVA followed by the Dunnett’s test.”"}, "[2]": {"experiment": "LC-MS of MK incubated with human umbilical vein ring", "assay_type": "in vitro ADME", "conditions": "37 °C; for fragment generated from MK: MK 1 µM in Krebs with umbilical vein ring, 5 or 15 min, LC-MS, duplicate; for increase of fragment ion intensity on reaction with tissue: vs. contaminant in commercial MK, MK 1 µM", "description": "Synthetic MK (1 µM) was submitted to digestion in 2 ml of sterile-filtered Krebs solution in the presence of a freshly prepared ring of human umbilical vein (wet weight 25–37 mg). The tubes containing these materials were incubated at 37 °C for 5 or 15 min; the tissues were then removed and five volumes of cold ethanol (10 ml) were added to each tube. The tubes were incubated for 1 h on ice, centrifuged at 10,000 g to remove precipitated proteins and the kinin-containing supernatants were collected (procedure previously validated, [Raymond et al., 1995]). The supernatants were then completely evaporated to dryness in a Speedvac system and reconstituted in a small volume of water. Peptides were desalted on stage tip (C18), vacuum dried and then resuspended into 0.1% formic acid. One hundred fmol of each sample (starting MK quantity) was analyzed by mass spectrometry.\nMass spectrometry: peptide samples were separated by online reversed-phase (RP) nanoscale capillary liquid chromatography (nanoLC) and analyzed by electrospray mass spectrometry (ES MS/MS). The experiments were performed with a Ekspert NanoLC425 (Eksigent) coupled to a 5600+ mass spectrometer (AB Sciex, Framingham, MA, USA) equipped with a nanoelectrospray ion source. Peptide separation took place on a picofrit column (Reprosil 3u, 120A C18, 15 cm × 0.075 mm internal diameter). Peptides were eluted with a linear gradient from 5–35% solvent B (acetonitrile, 0.1% formic acid) in 35 min, at 300 nL/min. Mass spectra were acquired using a data dependent acquisition mode using Analyst software version 1.7. […] Dynamic exclusion was set for a period of 3 s and a tolerance of 100 ppm\nDatabase searching: MGF peak list files were created using Protein Pilot version 5.0 software (Sciex) utilizing the Paragon and Progroup algorithms. MGF sample files were then analyzed using Mascot (Matrix Science, London, UK; version 2.5.1).\nMascot was set up to search the MK sequence assuming that the digestion enzyme was non-specific. Mascot was searched with a fragment ion mass tolerance of 0.100 Da and a parent ion tolerance of 0.100 Da. Deamidation of asparagine and glutamine and oxidation of methionine were specified in Mascot as variable modifications. Scaffold (version Scaffold_4.7.1; Proteome Software Inc., Portland, OR, USA) was used to validate MS/MS based peptide and protein identifications.\nData processing: Peak View 1.2.0.1 (Sciex) was used to extract the specific precursor masses and calculate the area under the curve. Extracted ion chromatoram (XIC) were generated from the TOF MS using a peak width of 0.05."}}, "note": "Entries after “also recorded” stand apart in the source; their conditions may differ. Where two headings read alike, the source gives them in different places. Residues, ends and D or L forms follow the SMILES beside them.", "data": [{"compound": "O=C(N[C@H]1CCS[C@H]2CCC[C@@H](C(=O)O)N2C1=O)[C@@H](S)Cc1ccccc1", "note": "[omapatrilat]", "values": [{"measurement": "effect of protease/peptidase inhibitor on contractile potency of MK", "setting": "[1]; inhibitor 30 min before MK", "result": "failed to modify the contractile effect of MK"}]}, {"compound": "COc1ccc(CN(CCN(C)C)c2ccccn2)cc1", "note": "[pyrilamine]", "values": [{"measurement": "effect of receptor antagonist on MK-induced contraction", "setting": "[1]; antagonist 1 µM, 30 min before MK", "result": "did not reduce the venous effect of MK"}, {"measurement": "effect of antagonist on histamine-induced contraction", "setting": "[1]; antagonist 1 µM, 30 min before histamine", "result": "profoundly and competitively inhibiting"}, {"measurement": "Basal mean arterial blood pressure after pre-treatment", "setting": "male Sprague-Dawley rats", "result": "87.4 ± 2.7"}, {"measurement": "Basal heart rate after pre-treatment", "setting": "male Sprague-Dawley rats", "result": "335 ± 6.1"}, {"measurement": "effect of pretreatment on hypotensive effect of MK", "setting": "male Sprague-Dawley rats; pyrilamine 5 mg/kg i.v.", "result": "did not antagonize the effects of MK"}, {"measurement": "effect of pretreatment on hypotensive effect of histamine", "setting": "male Sprague-Dawley rats; pyrilamine 5 mg/kg i.v., histamine 6.4 µg/kg i.v.", "result": "abated the hypotensive effect of histamine"}]}, {"compound": "C[C@H](N[C@@H](CCc1ccccc1)C(=O)O)C(=O)N1CCC[C@H]1C(=O)O", "note": "[enalaprilat]", "values": [{"measurement": "Basal mean arterial blood pressure after pre-treatment", "setting": "male Sprague-Dawley rats", "result": "94.9 ± 4.6"}, {"measurement": "Basal heart rate after pre-treatment", "setting": "male Sprague-Dawley rats", "result": "slight but significant increase in basal HR"}, {"measurement": "Basal heart rate after pre-treatment", "setting": "male Sprague-Dawley rats; listed as Enalaprilat", "result": "417 ± 13^*"}, {"measurement": "effect of pretreatment on hypotensive effect of MK", "setting": "male Sprague-Dawley rats; pyrilamine 5 mg/kg i.v.", "result": "not significantly potentiated"}]}, {"compound": "N=C(N)NCCC[C@H](NC(=O)[C@H](Cc1ccccc1)NC(=O)[C@@H]1CCCN1C(=O)[C@H](CO)NC(=O)[C@H](Cc1ccccc1)NC(=O)CNC(=O)[C@@H]1CCCN1C(=O)[C@@H]1CCCN1C(=O)[C@H](CCCNC(=N)N)NC(=O)[C@@H]1CCCN1C(=O)CNC(=O)[C@@H](N)CCCCN)C(=O)O", "note": "[Lys-Gly-Pro-BK] (H-KGPRPPGFSPFR-OH)", "values": [{"measurement": "fragment generated from MK", "setting": "[2]", "result": "evidenced in a time-dependent manner; also recorded: major C-terminal metabolite"}, {"measurement": "increase of fragment ion intensity on reaction with tissue", "setting": "[2]", "result": "3-4 -fold"}]}, {"compound": "CC(=O)N[C@@H](CC(C)C)C(=O)N[C@@H](CC(C)C)C(=O)N[C@H](C=O)CCCNC(=N)N", "note": "[leupeptin]", "values": [{"measurement": "effect of protease/peptidase inhibitor on contractile potency of MK", "setting": "[1]; inhibitor 30 min before MK", "result": "The same applied"}]}, {"compound": "DLPKINRKGPRPPGF [N-terminal fragment of MK]", "values": [{"measurement": "fragment generated from MK", "setting": "[2]", "result": "Abundant"}]}, {"compound": "N=C(N)NCCC[C@H](NC(=O)[C@H](Cc1ccccc1)NC(=O)[C@@H]1CCCN1C(=O)[C@H](CO)NC(=O)[C@H](Cc1ccccc1)NC(=O)CNC(=O)[C@@H]1CCCN1C(=O)[C@@H]1CCCN1C(=O)[C@H](CCCNC(=N)N)NC(=O)[C@@H]1CCCN1C(=O)CN)C(=O)O", "note": "[Gly-Pro-BK] (H-GPRPPGFSPFR-OH)", "values": [{"measurement": "fragment generated from MK", "setting": "[2]", "result": "evidenced in a time-dependent manner; also recorded: metabolite that accumulates"}, {"measurement": "increase of fragment ion intensity on reaction with tissue", "setting": "[2]", "result": "3-4 -fold"}]}, {"compound": "Cl.NCCc1ccc(S(=O)(=O)F)cc1", "note": "[pefabloc SC]", "values": [{"measurement": "effect of protease/peptidase inhibitor on contractile potency of MK", "setting": "[1]; inhibitor 30 min before MK", "result": "failed to change the concentration-effect curve of MK"}]}, {"compound": "O=C([O-])CN(CCN(CC(=O)[O-])CC(=O)[O-])CC(=O)[O-].[Ca+2].[Na+].[Na+]", "note": "[EDTA calcium disodium]", "values": [{"measurement": "effect of protease/peptidase inhibitor on contractile potency of MK", "setting": "[1]", "result": "The same applied"}]}, {"compound": "CC(C)C[C@H](NC(=O)[C@H]1O[C@@H]1C(=O)O)C(=O)NCCCCN=C(N)N", "note": "[E-64]", "values": [{"measurement": "effect of protease/peptidase inhibitor on contractile potency of MK", "setting": "[1]; inhibitor 30 min before MK", "result": "failed to change the concentration-effect curve of MK"}]}, {"compound": "DLPKINRKGPRPP [N-terminal fragment of MK]", "values": [{"measurement": "fragment generated from MK", "setting": "[2]", "result": "Abundant"}]}]}
